Results on four compounds are retold here after article PMC3191909 (Journal of biomolecular screening, 2009).

In assay [1] the target is (UniProt Z9ZW91H0F0). Put plainly: [3H]epibatidine radioligand competition SPA, Bt AChBP. Format: binding, Bolinus truncates.
For assay [2], the target named is T1, AChBP (Ls) (Lymnaea stagnalis, UniProt P58154). The class given is binding. The note with it: read-out: Kd, [125I]α-Bungarotoxin.
Assay [3] addresses T1, AChBP (Ls). The class given is binding. The following applies: read-out: Kd, [3H]Epibatidine.
The target in assay [4] is α-cobratoxin (Naja kaouthia, UniProt P01391). Details: species or system mice. The note with it: mouse, in vivo, iv.
Assay [5] concerns the target T2, AChBP (Ac) (Aplysia californica, UniProt Q8WSF8). Description: [3H]epibatidine radioligand competition SPA, Ac AChBP. Format: binding.
Assay [6] deals with T2, AChBP (Ac). Description: biochemical. Format: binding.

SMILES strings stand for the structures. Read-outs that look alike come from different tables or passages of the source.

T1 sequence (P58154 20-229): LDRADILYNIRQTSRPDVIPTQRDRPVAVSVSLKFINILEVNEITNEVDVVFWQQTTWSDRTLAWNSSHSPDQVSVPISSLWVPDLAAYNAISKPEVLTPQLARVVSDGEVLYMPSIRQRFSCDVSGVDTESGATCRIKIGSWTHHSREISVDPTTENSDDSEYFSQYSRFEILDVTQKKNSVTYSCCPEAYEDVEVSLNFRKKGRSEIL
Sequence of α-cobratoxin (P01391 whole entry, looked up): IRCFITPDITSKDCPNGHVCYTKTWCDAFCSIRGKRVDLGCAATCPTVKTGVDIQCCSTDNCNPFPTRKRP
Sequence of (UniProt Z9ZW91H0F0) (Z9ZW91H0F0 1-203): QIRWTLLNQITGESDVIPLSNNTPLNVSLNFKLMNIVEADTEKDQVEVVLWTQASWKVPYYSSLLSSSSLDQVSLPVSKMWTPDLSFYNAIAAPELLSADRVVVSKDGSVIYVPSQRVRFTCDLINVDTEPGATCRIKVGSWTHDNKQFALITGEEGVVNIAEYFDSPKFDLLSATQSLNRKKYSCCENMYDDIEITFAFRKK

In assay [1], `COc1cc2c3cc1Oc1cc(ccc1O)C[C@@H]1c4c(cc(OC)c(O)c4Oc4ccc(cc4)C[C@@H]3N(C)CC2)CC[N+]1(C)C` [NSC36387, d-tubocurarine, reference compound] returned a Kd of 37.5 nM.
As for `COc1cc2c(cc1OC)C13CCN4CC5=CCOC(CC(=O)O)C(C5CC41)C3N2` (centres unmarked) [NSC121865], the figures for the Kd in assay [2] and in assay [3] were 75.9 nM and 112 nM, respectively.
Regarding `c1ccc2c(CN3CCN(Cc4c[nH]c5ccccc45)CC3)c[nH]c2c1` [NSC42258], the “effect on survival time of mice (in words)” value in assay [4] is reported as “can prolong the survival time”. Also, the values for the dissociation constant (Kd) in assay [5] and in assay [6] were 1150 nM and 2910 nM, respectively.
Take `N#Cc1ccc(/C=C/C(=O)O)cc1` [NSC134754]: the Kd was determined as 404 nM in assay [2] and 793 nM in assay [3].
